According to patent publication US20100144660A1, “USE OF N,N-DIETHYL-2-[-4-(PHENYLMETHYL)-PHENOXY]ETHANAMINE MONOHYDROCHLORIDE (DPPE) IN CANCER THEREAPY” (YM Biosciences Inc., priority 2001, published 2010):
Read-outs that look alike come from different tables or passages of the source.

Columns and labels:
[1] = competition assays; cited from earlier work
[2] = test system: breast cancer patients who relapsed following surgery; assay: Phase III clinical trial: DPPE and doxorubicin versus doxorubicin alone, survival analysis by subgroup; format: in vivo, human; settings: for 1 yr (one year survival) / MST (median survival time): only ER known; for median survival time (MST) / one year survival: duration 6-36 month, prior chemotherapy group (FIG. 27), DPPE added to doxorubicin versus doxorubicin alone
Protocol: Two arms of treatment were involved in this trial. Patients were randomly selected to participate in either arm. In one arm, patients were treated with DPPE and doxorubicin, in the other arm patients were treated with doxorubicin alone.
In the trial, patients were permitted to stay on doxorubicin for a maximum of about 7 cycles (5 months). […] DPPE was administered to patients in the amount of 6 mg/kg (or 240 mg/M^2) over 80 minutes, with the concurrent administration of doxorubicin over the last 20 minutes at a […] of 60-90 mg/M^2.
The patients in the trial were assigned to subgroups based on duration, i.e. the length of time between the initial diagnosis of breast cancer and the appearance of advanced disease. The subgroups were: (i) less than or equal to 6 months, (ii) between 6 months and 36 months and (iii) more than 36 months.
For this subgroup analysis, the 3 duration subgroups (<6 m, 6-36 m and >36 m) are further subdivided into groups of patients that (i) have undergone prior chemotherapy, and (ii) have not undergone prior chemotherapy.
For this analysis, the patients in the trial were divided into subgroups based on Eastern Cooperative Oncology Group (ECOG) Performance Status (PS).
In this example, the patients were divided into subgroups of those patients that originated from Eastern Europe and those that originated mainly from Western Europe and North America.

[3] = test system: MCF-7 breast cancer cells; settings: ER−/AEBS+ or ER+/AEBS+ cells; cited from earlier work
[4] = test system: normal and malignant cells; settings: cited from earlier work
[5] = test system: intracellular histamine receptors; settings: cited from earlier work
[6] = cited from earlier work
[7] = test system: hormone-unresponsive metastatic prostate cancer; settings: intravenous infusion of DPPE over approximately one hour prior to cyclophosphamide; cited from earlier work
[8] = Geographically restricted subset
[9] = Geographically restricted subset (Eastern Europe excluded)
[10] = duration <36 m, ER+ (known ER status)
[11] = duration <36 m, ER− (known ER status)
[12] = duration >36 M, ER+ (known ER status)
[13] = duration >36 m, ER− (known ER status)
[14] = response PD (progressive disease)

Structure (SMILES): CCN(CC)CCOc1ccc(C(=O)c2ccc(F)cc2)cc1 [DFPE, N,N-diethyl-2-[4-(4′-fluorophenone)-phenoxy]ethanamine]
- potency compared to DPPE [1]: greater potency

Structure (SMILES): COc1cccc2c1C(=O)c1c(O)c3c(c(O)c1C2=O)C[C@@](O)(C(=O)CO)C[C@@H]3O[C@H]1C[C@H](N)[C@H](O)[C@H](C)O1 [DOX, doxorubicin]
- 1 yr survival ([2]; ECOG PS 0): 75%
- MST ([2]; ECOG PS 0): 20.3 m
- 1 yr survival ([2]; ECOG PS 1): 48%
- MST ([2]; ECOG PS 1): 11.7 m
- 1 yr survival ([2]; ECOG PS 2): 33%
- MST ([2]; ECOG PS 2): 5.9 m
- 1 yr (one year survival) ([2]; ER+ patients): 62%
- MST (median survival time) ([2]; ER+ patients): 16.5 m
- 1 yr (one year survival) ([2]; ER− patients): 36%
- MST (median survival time) ([2]; ER− patients): 9.5 m
- Survival by ECOG = 0, 1 yr [2, 8]: 63%
- Survival by ECOG = 0, MST [2, 8]: 16.5 m
- Survival by ECOG = 1, 1 yr [2, 8]: 42%
- Survival by ECOG = 1, MST [2, 8]: 11.5 m
- Survival by ER status ER−, 1 yr [2, 8]: 39%
- Survival by ER status ER−, MST [2, 8]: 9 m
- Survival by ER+, 1 yr [2, 8]: 55%
- Survival by ER+, MST [2, 8]: 15.5 m
- Survival by duration: 6-36 m, MST [2, 8]: 9 m
- Survival by response: CR/PR, 1 yr [2, 8]: 62%
- Survival by response: SD, 1 yr [2, 8]: 53%
- Survival by response: SD, MST [2, 8]: 12 m
- Survival for ER+ vs ER− within the arm [2, 8]: ER+ considerably better than ER−
- Overall survival 1 yr [2, 9]: 50%
- Overall survival MST [2, 9]: 12 m
- Overall survival 1 yr ([2]; Whole trial (Table 10)): 60%
- Overall survival MST ([2]; Whole trial (Table 10)): 15.6 m
- Survival by ECOG = 0, 1 yr ([2]; Whole trial (Table 10)): 75%
- Survival by ECOG = 0, MST ([2]; Whole trial (Table 10)): 20.3 m
- Survival by ECOG = 1, 1 yr ([2]; Whole trial (Table 10)): 48%
- Survival by ECOG = 1, MST ([2]; Whole trial (Table 10)): 11.7 m
- Survival by ER status ER−, 1 yr ([2]; Whole trial (Table 10)): 36%
- Survival by ER status ER−, MST ([2]; Whole trial (Table 10)): 9.5 m
- Survival by ER+, 1 yr ([2]; Whole trial (Table 10)): 62%
- Survival by ER+, MST ([2]; Whole trial (Table 10)): 16 m
- Survival by duration: 6-36 m, MST ([2]; Whole trial (Table 10)): 11.5 m
- Survival by response: CR/PR, 1 yr ([2]; Whole trial (Table 10)): 74%
- Survival by response: SD, 1 yr ([2]; Whole trial (Table 10)): 59%
- Survival by response: SD, MST ([2]; Whole trial (Table 10)): 17 m
- Survival for ER+ vs ER− within the arm ([2]; Whole trial (Table 10)): ER+ considerably better than ER−
- lived on average (survival) ([2]; all breast cancer patients of the trial): fifteen
- median survival time (MST) [2]: 10.7 months
- one year survival [2]: 40%
- 1 yr survival ([2]; duration <6 m): 56%
- MST ([2]; duration <6 m): 15 m
- 1 yr survival [2, 10]: 52%
- MST [2, 10]: 15.5 m
- 1 yr survival [2, 11]: 36%
- MST [2, 11]: 9.5 m
- 1 yr survival ([2]; duration >6 but <36 m): 45%
- MST ([2]; duration >6 but <36 m): 11.5 m
- 1 yr survival [2, 12]: 82%
- MST [2, 12]: 18 m
- 1 yr survival ([2]; duration >36 m): 77%
- MST ([2]; duration >36 m): 20.3 m
- 1 yr survival [2, 13]: 66%
- MST [2, 13]: 12 m
- median survival time (FIG. 22) ([2]; duration >36 months): 28.6356
- median survival time (FIG. 21) ([2]; duration of ≦36 months): 12.1973
- 1 yr survival ([2]; response CR/PR): 74%
- MST ([2]; response CR/PR): 28.5 m
- 1 yr survival [2, 14]: 34%
- MST [2, 14]: 10.5 m
- 1 yr survival ([2]; response SD (stable disease)): 59%
- MST ([2]; response SD (stable disease)): 17 m

Structure (SMILES): CCN(CC)CCOc1ccc(Cc2ccccc2)cc1.Cl [DPPE, N,N-diethyl-2-[-4-(phenylmethyl)-phenoxy]ethanamine monohydrochloride]
- in vitro growth of MCF-7 breast cancer cells [3]: inhibit
- cell proliferation in vivo ([4]; animal model): inhibit normal cell proliferation while promoting malignant cell proliferation
- interaction with doxorubicin (Adriamycin) ([4]; tumour-bearing animals treated concurrently with DPPE): act synergistically
- antagonism of intracellular histamine receptors [5]: potent antagonist
- toxicity ([6]; 4 mg/kg (160 mg/M^2) over 1 hour intravenously): non-toxic
- clinical side effects ([6]; 8 mg/M^2 over 24 to 72 hours): do not result in clinical side effects
- toxicity ([6]; 240 mg/M^2 over 1 hour): may result in CNS toxicity
- Survival by response: PD, comparison of arms ([2]; Geographically restricted subset, DPPE/DOX versus DOX): DPPE a little better at first
- survival benefit from the addition of DPPE ([2]; duration 6-36 m, no prior chemotherapy group): little, if any, benefit
- median survival time (MST) [2]: > 17.5 months
- one year survival [2]: under 70%
- survival benefit from the addition of DPPE ([2]; duration >36 m, prior and no prior chemotherapy subgroups): neither of the subgroups show any benefit
- effect on anti-cancer activity and toxicity of cyclophosphamide [7]: potentiate the anti-cancer activity and ameliorate the toxicity
